[np] = N3'→P5' phosphoramidate internucleoside linkage; d = 2'-deoxy (DNA); r = 2'-OH (RNA)
Tests used:
[1] = tested on: P. carinii rRNA precursor (P-h) containing a Group I intron; experiment: Fate of 5′ end radiolabeled hexamer with unlabeled P-h precursor (trans-splicing); assay type: biochemical, Pneumocystis carinii; settings: 0, 2, 3, or 15 mM Mg2+
Experimental: The fate of the hexamers, (dA)n(dT)n(dG)n(dA)n(dC)n(rU) [Seq. ID No:1] and (dC)n(dA)n(dG)n(dT)n(dA)n(rU) [Seq. ID No:5], was also analyzed using radiolabeled hexamer and unlabeled precursor in the presence and absence of pG colactor. Approximately 300 nM unlabeled P-h precursor was reannealed at 55° C. in 3 μL of the appropriate buffer for 5 min and slow cooled to 37° C. A 3 μL solution of […] 5′ end radiolabeled hexamer in the same buffer at 37° C. was added and the reaction was allowed to proceed for 1 h. The reaction was quenched by the addition of 6 μL of 2× stop buffer and the reactants and products were separated on a 10% polyacrylamide, 8 M urea gel. The gel was dried under vacuum and the bands quantified with a Molecular Dynamics phosphorimager.

[2] = tested on: P. carinii rRNA precursor (P-h) containing a Group I intron; experiment: Inhibition of self-splicing, internally radiolabeled P-h precursor, gel assay; assay type: biochemical, Pneumocystis carinii; settings: 2 mM Mg2+, up to 30 μM oligonucleotide, 1 mM pG
[3] = tested on: P. carinii rRNA precursor (P-h) containing a Group I intron; experiment: Oligonucleotide concentration dependence of cis- and trans-splicing, 3′ end radiolabeled P-h precursor; assay type: biochemical, Pneumocystis carinii; settings: up to 30 μM oligonucleotide, 4 mM Mg2+
C-10/1x ribozyme = experiment: Binding to C-10/1x ribozyme, competitive band-shift native electrophoresis; set-up: species or system Candida albicans; settings: H15Mg buffer; for Binding to C-10/1x ΔG*37,C-10/1x: calculated from Kd, T = 310 K; for Tertiary Stability BETI (binding enhanced by tertiary interactions): calculated using Kd values; for Tertiary Stability ααG°37,BETI: difference in ΔG°37 for binding to C-10/1x and r(GGAGGC)
Experimental: C-10/1x is a Candida albicans rRNA Group I ribozyme. Dissociation constants for 5′ exon oligonucleotide mimics which bind to the C-10/1x ribozyme were measured by competitive band-shift native electrophoresis using methods described in Testa et al., Biochemistry 37:9379-9385 (1998). The results for a variety of oligonucleotides complementary or containing a one base mismatch to the C-10/1x 5′ exon guide sequence are shown in Table 2.

r(GGAGGC) = experiment: Base-pairing to r(GGAGGC), thermodynamic melts; assay type: binding; settings: H15Mg buffer; for Kd: calculated from ΔG°37, read-out: Binding to r(GGAGGC) Kd,B.P.

Substance	reactivity of 5′ radiolabeled hexamer with unlabeled precursor [1]	increase in the 5′ exon-intron product [2]	formation of trans-spliced product [3]	Kd (C-10/1x ribozyme)	Binding to C-10/1x ΔG*37,C-10/1x (C-10/1x ribozyme)	Tertiary Stability BETI (binding enhanced by tertiary interactions) (C-10/1x ribozyme)	Tertiary Stability ααG°37,BETI (C-10/1x ribozyme)	Binding to r(GGAGGC) ΔG°37,B.P. (r(GGAGGC))	Kd (r(GGAGGC))
(dC)n(dA)n(dG)n(dT)n(dA)n(rU) (CAGTAU; sugars from the 5' end d5 r1, all [np], methylation of C not given here) [reference compound]	not reactive	does not occur	not formed						
r(GACUCU) [reference compound]				0.0069 µM	-11.6 kcal/mol	4800000	-9.5 kcal/mol	-2.1 kcal/mol	600 µM
r(GCCUCU) [reference compound]				0.0007 µM	-13.0 kcal/mol	1500	-4.5 kcal/mol	-8.5 kcal/mol	100 µM

From patent publication US6958215B1, “Methods and compositions for inhibition of RNA splicing” (priority 1999, dated 2005)
